What was measured:
H1047R PIK3CA enzyme = H1047R PIK3CA enzyme (Homo sapiens, UniProt P42336, H1047R); assay: ADP-Glo Biochemical PIK3CA Kinase Assay
cells = conditions: Homo sapiens, MCF-10A, read-out: MCF10A IC50

Chain of H1047R PIK3CA enzyme (P42336 whole entry H1047R): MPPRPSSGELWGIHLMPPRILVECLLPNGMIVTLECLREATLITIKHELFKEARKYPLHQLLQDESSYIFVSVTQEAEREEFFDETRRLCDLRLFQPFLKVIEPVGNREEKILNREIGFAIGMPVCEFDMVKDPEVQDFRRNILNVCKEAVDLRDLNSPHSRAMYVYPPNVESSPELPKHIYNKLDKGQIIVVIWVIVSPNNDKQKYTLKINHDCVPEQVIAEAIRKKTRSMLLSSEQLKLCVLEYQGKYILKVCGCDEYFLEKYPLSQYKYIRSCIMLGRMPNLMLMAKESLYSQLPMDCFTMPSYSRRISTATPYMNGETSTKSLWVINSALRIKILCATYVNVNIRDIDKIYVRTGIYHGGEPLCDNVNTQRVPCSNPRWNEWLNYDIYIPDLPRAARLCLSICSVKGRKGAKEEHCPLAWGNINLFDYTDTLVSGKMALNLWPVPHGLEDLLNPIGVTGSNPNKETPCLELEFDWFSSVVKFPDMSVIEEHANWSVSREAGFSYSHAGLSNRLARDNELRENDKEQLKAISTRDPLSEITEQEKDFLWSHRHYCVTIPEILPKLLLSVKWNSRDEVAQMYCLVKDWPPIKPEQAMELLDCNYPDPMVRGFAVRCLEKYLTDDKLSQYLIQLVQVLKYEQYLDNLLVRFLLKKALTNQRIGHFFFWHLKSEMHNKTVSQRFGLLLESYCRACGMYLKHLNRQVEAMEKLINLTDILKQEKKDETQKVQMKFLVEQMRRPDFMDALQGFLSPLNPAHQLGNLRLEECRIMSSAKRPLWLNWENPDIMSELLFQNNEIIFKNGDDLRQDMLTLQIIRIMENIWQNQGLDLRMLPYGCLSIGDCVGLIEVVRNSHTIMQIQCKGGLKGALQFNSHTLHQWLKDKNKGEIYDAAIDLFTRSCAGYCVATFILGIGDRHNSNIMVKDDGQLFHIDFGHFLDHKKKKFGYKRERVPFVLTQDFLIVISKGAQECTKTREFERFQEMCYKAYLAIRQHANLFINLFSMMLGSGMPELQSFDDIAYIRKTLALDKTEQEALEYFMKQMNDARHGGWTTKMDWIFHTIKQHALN
Chain of H1047R PIK3CA enzyme (P27986 whole entry partner): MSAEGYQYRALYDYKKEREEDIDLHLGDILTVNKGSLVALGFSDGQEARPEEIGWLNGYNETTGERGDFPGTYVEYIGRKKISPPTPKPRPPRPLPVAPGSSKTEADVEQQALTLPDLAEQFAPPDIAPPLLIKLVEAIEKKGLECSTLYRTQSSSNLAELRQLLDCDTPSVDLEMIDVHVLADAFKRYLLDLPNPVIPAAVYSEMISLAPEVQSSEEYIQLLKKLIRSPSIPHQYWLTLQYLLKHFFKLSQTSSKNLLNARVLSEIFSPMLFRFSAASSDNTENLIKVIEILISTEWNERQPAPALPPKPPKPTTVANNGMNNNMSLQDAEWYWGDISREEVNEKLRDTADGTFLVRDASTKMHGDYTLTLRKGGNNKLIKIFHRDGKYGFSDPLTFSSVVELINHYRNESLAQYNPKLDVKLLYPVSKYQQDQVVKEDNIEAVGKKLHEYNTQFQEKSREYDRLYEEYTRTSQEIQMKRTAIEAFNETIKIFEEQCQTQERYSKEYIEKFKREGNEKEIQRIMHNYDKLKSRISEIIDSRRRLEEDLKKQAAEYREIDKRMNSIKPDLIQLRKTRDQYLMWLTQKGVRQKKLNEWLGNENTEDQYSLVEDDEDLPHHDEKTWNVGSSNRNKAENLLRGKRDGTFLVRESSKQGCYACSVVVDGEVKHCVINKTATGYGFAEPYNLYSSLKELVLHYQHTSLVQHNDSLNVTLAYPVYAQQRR

Structure (SMILES)	IC50 (H1047R PIK3CA enzyme) [µM]	IC50 (cells) [µM]
O=C(Nc1cc(-c2cnn(C(F)F)c2)cc2c1[C@H](c1cc(F)ccc1Cl)NC2=O)c1cc(F)cc(C(F)(F)F)c1 (single isomer, unassigned) [Compound I-1740]	≤ 0.1	< 1
CC(C#N)c1cc(NC(=O)c2cc(F)cc(C(F)(F)F)c2)c2c(c1)C(=O)N[C@H]2c1cc(F)ccc1Cl (stereo partly shown) [Compound I-2290]	≤ 0.1	< 1
O=C(Nc1cc(NC2=NC3(CO2)CC(F)(F)C3)cc2c1C(c1cc(F)ccc1Cl)NC2=O)c1cc(F)cc(C(F)(F)F)c1 (stereo not shown) [Compound I-2409]	≤ 0.1	5 to 10
Cc1cn(-c2cc(NC(=O)N3C[C@](O)(C(F)(F)F)c4cc(F)ccc43)c3c(c2)C(=O)N[C@@H]3c2cc(F)ccc2Cl)cn1 (single isomer, unassigned) [Compound I-2637]	≤ 0.1	< 1
CNc1cc(NC(=O)N2C[C@@](O)(C(F)(F)F)c3cc(F)ccc32)c2c(c1)C(=O)N[C@@H]2c1cc(F)ccc1Cl (single isomer, unassigned) [Compound I-2640]	≤ 0.1	< 1
O=C1N[C@@H](c2cc(F)ccc2Cl)c2c(NC(=O)N3C[C@@](O)(C(F)(F)F)c4cc(F)ccc43)cccc21 (single isomer, unassigned) [Compound I-2518]	≤ 0.1	< 1
Cc1noc(C)c1Nc1cc(NC(=O)c2cc(F)cc(C(F)(F)F)c2)c2c(c1)C(=O)NC2c1cc(F)ccc1Cl (stereo not shown) [Compound I-923]	≤ 0.1	< 1
CC(=O)Nc1cc(NC(=O)N2C[C@](O)(C(F)(F)F)c3cc(F)ccc32)c2c(c1)C(=O)N[C@@H]2c1cc(F)ccc1Cl (single isomer, unassigned) [Compound I-2573]	≤ 0.1	< 1
O=C(Nc1cc(-c2ccc3c(c2)C(=O)NCCO3)cc2c1C(c1cc(F)ccc1Cl)NC2=O)c1cc(F)cc(C(F)(F)F)c1 (stereo not shown) [Compound I-1048]	≤ 0.1	< 1
O=C1N[C@@H](c2cc(F)ccc2Cl)c2c(NC(=O)N3C[C@@](O)(C(F)(F)F)c4ccccc43)cccc21 (single isomer, unassigned) [Compound I-2386]	≤ 0.1	< 1
O=C(Nc1cc(-c2ccncc2F)cc2c1[C@@H](c1cc(F)ccc1Cl)NC2=O)c1cc(F)cc(C(F)(F)F)c1 (stereo in doubt) [Compound I-986]	≤ 0.1	< 1
O=C(Nc1cc(Nc2nc3ccccc3[nH]2)cc2c1C(c1cc(F)ccc1Cl)NC2=O)c1cc(F)cc(C(F)(F)F)c1 (stereo not shown) [Compound I-993]	≤ 0.1	1 to 5
N#CCN1CC(c2cc(NC(=O)c3cc(F)cc(C(F)(F)F)c3)c3c(c2)C(=O)NC3c2cc(F)ccc2Cl)C1 (stereo not shown) [Compound I-1158]	≤ 0.1	< 1
O=C1NC(c2ccccc2C(F)F)c2c(NC(=O)c3nsc4ccccc34)cccc21 (stereo not shown) [Compound I-122]	≤ 0.1	1 to 5
NCCc1cc(NC(=O)N2C[C@@](O)(C(F)(F)F)c3cc(F)ccc32)c2c(c1)C(=O)N[C@H]2c1cc(F)ccc1Cl (single isomer, unassigned) [Compound I-2581]	≤ 0.1	10 to 36
N#Cc1cnccc1-c1cc(NC(=O)c2cc(F)cc(C(F)(F)F)c2)c2c(c1)C(=O)NC2c1cc(F)ccc1Cl (stereo not shown) [Compound I-1098]	≤ 0.1	< 1
O=C(Nc1cc(C2CN(c3ccncn3)C2)cc2c1C(c1cc(F)ccc1Cl)NC2=O)c1cc(F)cc(C(F)(F)F)c1 (stereo not shown) [Compound I-1104]	≤ 0.1	< 1
Cc1ccccc1C1NC(=O)c2cc(CNC(=O)OC(C)(C)C)cc(NC(=O)c3csc4ccccc34)c21 (stereo not shown) [Compound I-87]	≤ 0.1	1 to 5
Cc1cc(-c2cc(NC(=O)c3cc(F)cc(C(F)(F)F)c3)c3c(c2)C(=O)NC3c2cc(F)ccc2Cl)cc2cnn(C)c12 (stereo not shown) [Compound I-927]	0.1 to 0.5	5 to 10
O=C1N[C@H](c2cc(F)ccc2Cl)c2c(NC(=O)N3C[C@@](O)(C(F)(F)F)c4cc(F)ccc43)cc(Cl)nc21 (single isomer, unassigned) [Compound I-2703]	≤ 0.1	< 1
O=C1N[C@@H](c2cc(F)ccc2Cl)c2c(NC(=O)N3C[C@](O)(C(F)(F)F)c4cc(F)ccc43)ccc(-n3nccn3)c21 (single isomer, unassigned) [Compound I-2525]	≤ 0.1	< 1
Cn1ccc(-c2cc(NC(=O)c3cc(F)cc(C(F)(F)F)c3)c3c(c2)C(=O)NC3c2cc(F)ccc2Cl)n1 (stereo not shown) [Compound I-947]	≤ 0.1	< 1
O=C1N[C@H](c2cc(F)ccc2C(F)F)c2c(NC(=O)c3nsc4ccccc34)cccc21 [Compound I-167]	≤ 0.1	1 to 5
CC(C)(C#N)n1cc(-c2cc(NC(=O)N3C[C@@](O)(C(F)(F)F)c4cc(F)ccc43)c3c(c2)C(=O)N[C@@H]3c2cc(F)ccc2Cl)cn1 (single isomer, unassigned) [Compound I-2613]	≤ 0.1	< 1
NC(=O)c1nc(-c2cc(NC(=O)c3cc(F)cc(C(F)(F)F)c3)c3c(c2)C(=O)NC3c2cc(F)ccc2Cl)cs1 (stereo not shown) [Compound I-1067]	≤ 0.1	< 1

Structure (SMILES)	IC50 (H1047R PIK3CA enzyme) [µM]	IC50 (cells) [µM]
CN(C)c1nc2cc(-c3cc(NC(=O)c4cc(F)cc(C(F)(F)F)c4)c4c(c3)C(=O)NC4c3cc(F)ccc3Cl)ccn2n1 (stereo not shown) [Compound I-2200]	≤ 0.1	< 1
O=C(Nc1cc(Nc2cn[nH]c2)cc2c1C(c1cc(F)ccc1Cl)NC2=O)c1cc(F)cc(C(F)(F)F)c1 (stereo not shown) [Compound I-994]	≤ 0.1	< 1
O=C1N[C@H](c2cc(F)ccc2Cl)c2c(NC(=O)N3C[C@@H](O)c4cc(F)ccc43)cc(Cl)cc21 (single isomer, unassigned) [Compound I-2402]	≤ 0.1	< 1
O=C1NC(c2cc(F)ccc2Cl)c2c(Nc3nccc4c(Cl)cc(F)cc34)cc(Br)cc21 (stereo not shown) [Compound I-959]	0.1 to 0.5	< 1
CNc1cc(NC(=O)N2C[C@](O)(C(F)(F)F)c3cc(F)ccc32)c2c(c1C#N)C(=O)N[C@@H]2c1cc(F)ccc1Cl (single isomer, unassigned) [Compound I-2609]	≤ 0.1	< 1
CC(C)(O)Cn1cc(-c2cc(NC(=O)c3cc(F)cc(C(F)(F)F)c3)c3c(c2)C(=O)NC3c2cc(F)ccc2Cl)cn1 (stereo not shown) [Compound I-968]	≤ 0.1	< 1
Cn1cc(Nc2cc(NC(=O)c3cc(F)cc(C(F)(F)F)c3)c3c(c2)C(=O)N[C@H]3c2cc(F)ccc2Cl)cn1 (single isomer, unassigned) [Compound I-997]	≤ 0.1	< 1
CC(C)(O)CNc1cc(NC(=O)c2cc(F)cc(C(F)(F)F)c2)c2c(c1)C(=O)N[C@@H]2c1cc(F)ccc1Cl [Compound I-900]	≤ 0.1	< 1
COc1ncccc1-c1cc(NC(=O)c2cc(F)cc(C(F)(F)F)c2)c2c(c1)C(=O)NC2c1cc(F)ccc1Cl (stereo not shown) [Compound I-1091]	≤ 0.1	< 1
N#Cc1ccc(-c2cc(NC(=O)c3cc(F)cc(C(F)(F)F)c3)c3c(c2)C(=O)N[C@@H]3c2cc(F)ccc2Cl)cn1 (single isomer, unassigned) [Compound I-1000]	≤ 0.1	< 1
Cn1cc(-c2cc(NC(=O)c3cc(F)cc(C(F)(F)F)c3)c3c(c2)C(=O)NC3c2cc(F)ccc2C(F)F)cn1 (stereo not shown) [Compound I-220]	≤ 0.1	< 1
Cn1ccnc1Nc1cc(NC(=O)c2cc(F)cc(C(F)(F)F)c2)c2c(c1)C(=O)NC2c1cc(F)ccc1Cl (stereo not shown) [Compound I-1075]	≤ 0.1	< 1
O=C(Nc1cc(NC2COC2)cc2c1[C@H](c1cc(F)ccc1Cl)NC2=O)c1cc(F)cc(C(F)(F)F)c1 [Compound I-814]	≤ 0.1	< 1
O=C(Nc1cccc2c1C(c1cc(F)ccc1Cl)NC2=O)c1csc2c1CCCC2 (stereo not shown) [Compound I-2239]	≤ 0.1	1 to 5
Cc1ccccc1C1NC(=O)c2cccc(NC(=O)c3csc4cnccc34)c21 (stereo not shown) [Compound I-46]	0.1 to 0.5	10 to 36
O=C1NC(c2cc(F)ccc2Cl)c2c(NC(=O)N3CC(O)c4cc(F)ccc43)cc(-n3cncn3)cc21 (mixture of isomers) [Compound I-2414]	0.1 to 0.5	10 to 36
C[C@@]1(C(=O)Nc2cc(Br)cc3c2[C@H](c2cc(F)ccc2Cl)NC3=O)CCC[C@H](C(F)(F)F)C1 (single isomer, unassigned) [Compound I-2262]	0.1 to 0.5	1 to 5
Cn1cnc(Nc2cc(NC(=O)c3cc(F)cc(C(F)(F)F)c3)c3c(c2)C(=O)NC3c2cc(F)ccc2Cl)n1 (stereo not shown) [Compound I-976]	≤ 0.1	< 1
O=C1NC(c2cc(F)ccc2Cl)c2c(NC(=O)N3CC(O)c4cc(F)ccc43)cc(-c3cnn(C(F)F)c3)cc21 (stereo not shown) [Compound I-2299]	≤ 0.1	1 to 5
O=C(Nc1cc(N2CCOCC2)cc2c1C(c1cc(F)ccc1Cl)NC2=O)c1cc(F)cc(C(F)(F)F)c1 (stereo not shown) [Compound I-1164]	≤ 0.1	< 1
N#CCc1cc(NC(=O)N2C[C@@H](O)c3cc(F)ccc32)c2c(c1)C(=O)N[C@H]2c1cc(F)ccc1Cl (single isomer, unassigned) [Compound I-2537]	≤ 0.1	< 1
C[C@@H](C#N)Cn1cc(-c2cc(NC(=O)N3C[C@@H](O)c4cc(F)ccc43)c3c(c2)C(=O)N[C@H]3c2cc(F)ccc2Cl)cn1 (single isomer, unassigned) [Compound I-2503]	≤ 0.1	5 to 10
Cc1ccccc1C1NC(=O)c2cccc(NC(=O)N3CC(C)(C)c4ccccc43)c21 (stereo not shown) [Compound I-45]	1 to 10	10 to 36
Cn1nccc1-c1cc(NC(=O)c2cc(F)cc(C(F)(F)F)c2)c2c(c1)C(=O)NC2c1cc(F)ccc1Cl (stereo not shown) [Compound I-906]	≤ 0.1	< 1
O=C1N[C@@H](c2cc(F)ccc2Cl)c2c(NC(=O)N3C[C@H](O)c4c(F)cccc43)cccc21 (single isomer, unassigned) [Compound I-2142]	≤ 0.1	< 1
